Laboratory results reported in PubChem BioAssay (NCI).
“And” between values parts separate entries of the source, which are not always exact repeats. Equal values may be shown once.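 How tested: cells in 96-well plates exposed to compound for 48 hours at five concentrations. The concentration for 50% growth inhibition is given as GI50. TGI: concentration producing complete growth inhibition.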

Tests used:
Assay in all cases: NCI anticancer screen, dose series, 48 h
SK-OV-3 ovarian = tested on: SK-OV-3 ovarian
NCI-H226 lung = tested on: NCI-H226 lung
HCC-2998 colon = tested on: HCC-2998 colon
MOLT-4 leukemia = tested on: MOLT-4 leukemia
HOP-62 NSCLC = tested on: HOP-62 NSCLC
RPMI-8226 leukemia = tested on: RPMI-8226 leukemia
LOX IMVI melanoma = tested on: LOX IMVI melanoma
IGROV1 ovarian = tested on: IGROV1 ovarian
HCT-15 colon = tested on: HCT-15 colon
ACHN renal = tested on: ACHN renal

SMILES	GI50 (SK-OV-3 ovarian) [µM]	TGI (SK-OV-3 ovarian)	GI50 (NCI-H226 lung) [µM]	TGI (NCI-H226 lung) [µM]	GI50 (HCC-2998 colon)	TGI (HCC-2998 colon)	GI50 (MOLT-4 leukemia) [µM]	TGI (MOLT-4 leukemia) [µM]	GI50 (HOP-62 NSCLC) [µM]	TGI (HOP-62 NSCLC) [µM]	GI50 (RPMI-8226 leukemia) [µM]	TGI (RPMI-8226 leukemia) [µM]	GI50 (LOX IMVI melanoma) [µM]	TGI (LOX IMVI melanoma) [µM]	GI50 (IGROV1 ovarian)	TGI (IGROV1 ovarian) [µM]	GI50 (HCT-15 colon) [µM]	TGI (HCT-15 colon) [µM]	TGI (ACHN renal) [µM]	GI50 (ACHN renal) [µM]
Cc1c(C)c2ccc(OC/C=C3\CCC(=O)O3)cc2oc1=O	26.5	93.1 µM	18.9	40.8	18.3 µM	33 µM	19.8	> 100	15	28.8	6.1	40.9	15.2	29.4	14.2 µM	28.9	5.4	20.2	–	–
CCO[C@@H]1C2C=CC(C2)[C@H]1[N+](=O)[O-] (some centres undefined)	–	> 100 µM	–	> 100	–	> 100 µM	–	> 100	–	> 100	–	> 100	–	> 100	–	> 100	–	> 100	> 100	–
Fc1ccc(Nc2nc(NCCNc3ccnc4cc(Cl)ccc34)nc(N3CCOCC3)n2)cc1	11.9	24.6 µM	14.4	33.4	2 µM	3.95 µM	4.16	16.5	13.4	26.5	3.15	14.6	2.95	10.1	6.3 µM	21.4	2.46	6.56	20.2	7.06
O=C(O)CCC1CCc2cccc3occ1c23 (centres undefined)	–	> 100 µM	–	> 100	–	> 100 µM	–	> 100	–	> 100	–	> 100	–	> 100	–	> 100	–	> 100	> 100	–
COc1cc2cc(Oc3ccc(NC(=O)c4ccc(Cl)c(C(F)(F)F)c4)cc3)c(C)nc2cc1OC	66	> 100 µM	19.6	> 100	41.7 µM	> 100 µM	9.7	70.5	42.6	> 100	5.43	32.7	7.59	> 100	35.5 µM	> 100	12.3	> 100	> 100	10.8
CC(=O)NC(CCCN(Cc1ccccc1)C(=O)N(CCCl)N=O)C(=O)NCc1ccccc1 (centres undefined)	–	> 100 µM	–	> 94.2	–	> 100 µM	–	97.5	–	46.3	–	> 100	–	> 57.1	–	> 100	–	> 100	> 96.3	–
CN(C)c1ccc(N=Nc2c([O-])ccc3ccccc23)cc1.[C-]#[O+].[C-]#[O+].[Ir]	> 100	> 100 µM	> 53.9	> 100	38.5 µM	> 79.9 µM	12.6	59.5	> 100	> 100	22.7	> 65.1	18.6	40.5	17.9 µM	52.7	18.5	34.9	55.2	5.43
O=C(NN1C(=O)CSC1c1ccc(Cl)cc1)c1[nH]c2ccc(F)cc2c1-c1ccccc1 (centres undefined)	7.25	20 µM	3.51	9.43	2.31 µM	5.63 µM	2.4	8.17	2.34	5.55	2.13	6.24	2.65	7.18	3.89 µM	11.5	3.9	14.3	12.2	3.28
COC(=O)C(=O)C(C(=O)C=C(C)C)C(=O)C(=O)Nc1cccc(C(C)=O)c1 (centres undefined)	–	> 100 µM	–	> 100	–	> 100 µM	–	> 100	–	> 100	–	> 100	–	> 100	–	> 100	–	> 100	> 100	–
Cc1ncc([N+](=O)[O-])n1CCNC(=O)CCCn1cnc([N+](=O)[O-])n1	–	> 100 µM	–	> 100	–	> 100 µM	–	> 100	–	> 100	–	> 100	–	> 100	–	> 100	–	> 100	> 100	–
O=C1C(=O)N(C2C3CC4CC(C3)CC2C4)C(=O)C(=O)C1c1nc2ccccc2o1 (centres undefined)	–	> 100 µM	–	> 100	–	> 100 µM	–	–	–	> 100	–	> 100	–	> 100	–	> 100	–	> 100	> 100	–
CCc1c2c(nc3cccc(N)c13)-c1cc3c(c(=O)n1C2)COC(=O)[C@]3(O)CC	0.00719	4.13 µM and 13 µM	0.00208	0.157	0.0349 µM and 0.02 µM	1.39 µM and 11.4 µM	< 0.001	0.15	0.00143	4.29	0.0932	0.56	0.00461	0.182	0.137 µM and 0.0298 µM	20.8	–	> 100	–	–
CC(C)[C@@H](COC(C)(C)C)N=CN1CCc2c([nH]c3ccccc23)C1	–	> 100 µM	–	> 100	–	> 100 µM	–	> 100	–	> 100	–	> 100	–	> 100	–	> 100	–	> 100	> 100	–
Fc1ccc(Nc2nccc(-c3c(-c4ccc(C(F)(F)F)cc4)nn4ncccc34)n2)cc1F	> 25	> 25 µM	> 25	> 25	> 25 µM	> 25 µM	> 25	> 25	> 25	> 25	> 25	> 25	> 25	> 25	> 25 µM	> 25	> 25	> 25	> 25	> 25
Cn1cc(-c2ccc(CNc3cc(-c4cnc5cc(OCCCN6CCCC6)ccn45)ncn3)cc2)cn1	23	43.3 µM	2.03	4.81	2.21 µM	5.71 µM	2.76	> 100	14.4	31.9	2.15	5.55	1.75	3.4	2.05 µM	4.27	2.81	12	3.22	1.78
